Experimental data from article PMC8869728 (Biomedicines, 2022).
Like-named read-outs stand apart in the source and are kept apart here.

Experiments:
[1] = system: scopolamine-treated amnesiac ICR mice; experiment: Passive avoidance test in scopolamine-induced amnesiac ICR mice; conditions: scopolamine 1 mg/kg i.p.
Protocol: The 6-week-old male ICR mice were from the Laboratory Animal Center, College of Medicine, National Taiwan University (Taipei, Taiwan). The Prolab® RMH2500 normal diets (LabDiet Co., St. Louis, MO, USA) and water were free access during the animal experiments. After one week of acclimation, the VT-95EE or VT-95EE-EA pre-treatments were used to evaluate preventive functions as follows. […] At the first stage, the extract (VT-95EE and VT-95EE-EA)-administered group, ICR mice were treated from day 1 to day 11 by a single oral administration daily by gavage. […] Except for the blank, each mouse in all groups was intraperitoneally injected with scopolamine (1 mg/kg) 30 min after the oral administration. Each mouse in the blank group was injected with an equal volume of PBS instead of scopolamine. Each mouse received a learning and memory evaluation by a passive avoidance test 30 min after scopolamine injection at day 13 to day 14. All mice were sacrificed in the end of animal experiments at day 15, and the brain tissue of mouse in each group was isolated, weighted, and stored at −80°C for further uses.
The pre-treatment was used to evaluate preventive functions. […] At the first stage, the purified compound (vitisin A and vitisin B) administered group, ICR mice were treated from day 1 to day 9 by a single oral administration daily by gavage. […] Except for the blank, each mouse in all groups was intraperitoneally injected with scopolamine (1 mg/kg) 30 min after the oral administration. Each mouse in the blank group was injected with an equal volume of PBS instead of scoploamine. Each mouse received a learning and memory evaluation by a passive avoidance test 30 min after scopolamine injection at day 11 to day 12. All mice were sacrificed in the end of animal experiments at day 13, and the brain tissue of mice in each group was isolated, weighted, and stored at −80 °C for further uses.
The apparatus for passive avoidance test is a shuttle chamber composed of a bright box and a dark box; the dark box could be closed by a manual guillotine door (AccuScan Instruments Inc, Columbus, OH, USA). The dark box contained a wired metal floor, through which the electric foot shocks were automatically delivered in the acquisition trial. The first day was the acquisition trial, and the second day was the retention trial. For the acquisition trial, each mouse was placed around the shuttle chamber to acclimatize to the environment; 30 min later, each mouse was transferred to the bright box to record the time in the bright box (the step-through latency, s).

recombinant human MAO-B = target: T1, recombinant human MAO-B (Homo sapiens, UniProt P27338); experiment: MAO-B inhibitory activities in vitro (kynuramine fluorescence); assay type: biochemical; conditions: calculated from linear equation of three concentrations; read-out: IC50 of MAO-B inhibition
T1 construct: purchased Sigma Chemical Co. (St. Louis, MO, USA)
T1 sequence (P27338 1-520): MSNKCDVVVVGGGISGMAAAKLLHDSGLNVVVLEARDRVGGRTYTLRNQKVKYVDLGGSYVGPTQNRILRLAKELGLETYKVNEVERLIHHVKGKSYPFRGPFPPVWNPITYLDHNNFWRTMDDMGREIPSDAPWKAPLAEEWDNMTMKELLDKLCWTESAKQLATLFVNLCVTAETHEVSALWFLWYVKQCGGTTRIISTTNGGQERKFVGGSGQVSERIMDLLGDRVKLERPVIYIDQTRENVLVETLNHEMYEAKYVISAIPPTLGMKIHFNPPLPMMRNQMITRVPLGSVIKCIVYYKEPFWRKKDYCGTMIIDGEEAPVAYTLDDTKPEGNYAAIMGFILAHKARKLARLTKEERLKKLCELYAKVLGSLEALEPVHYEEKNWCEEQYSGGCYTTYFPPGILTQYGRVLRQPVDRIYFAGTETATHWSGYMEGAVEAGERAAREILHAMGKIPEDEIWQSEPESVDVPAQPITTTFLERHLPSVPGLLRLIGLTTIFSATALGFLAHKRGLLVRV
Protocol: The kynuramine was used as the MAO-B substrate to generate a fluorescent product, 4-hydroxyquinoline, which was used to screen MAO-B inhibitory activity assays. […] The MAO-B inhibition (%) was calculated as the following: [(Fblank − Fsample)/(Fblank)] × 100%. The IC50 of MAO-B activity was calculated from each linear equation from three used concentrations for MAO-B inhibitions.

SH-SY5Y cells = experiment: Neuroprotective activities against MGO-induced SH-SY5Y cell deaths (SRB cell viability); assay type: cell-based, human; conditions: then 500 μM MGO 24 h
Protocol: The SH-SY5Y cells were cultured at 37 °C in the mixed medium of EMEM/F12 (1:1) and 10% FBS in the humidified atmosphere and 5% CO2. […] The treated SH-SY5Y cells were washed with PBS, and then the media without (the blank) or with 500 μM MGO (the control group and sample groups) were added for additional 24-h incubation at 37 °C. The cell viability was assayed by the SRB dyes as follows. The MGO-treated SH-SY5Y cells were washed twice with PBS, fixed by 10% trichloroacetic acid, and then stained with 0.2% SRB (dissolved in 1% acetic acid) for 30 min. The unbound dyes were removed by washing the stained cells with 1% acetic acid. The bound dyes in alive cells were extracted by 500 µL of 10 mM Tris-HCl buffer (pH 7.9). The absorbance at 540 nm was measured using an ELISA reader (TECAN, Männedorf, Switzerland).

recombinant human AChE = target: T2, recombinant human AChE (Homo sapiens, UniProt P22303); experiment: biochemical; conditions: calculated from linear equation of three concentrations; read-out: IC50 of AChE inhibition
T2 construct: purchased R&D Systems Inc. (Minneapolis, MN)
From the text: The synthetic acetylthiocholine iodide was used as substrates for in vitro AChE activity assays. […] The released thiocholine was reacted with DTNB to generate yellowish 5-thio-2-nitrobenzoate. […] The AChE inhibitory activities (%) were as following: [(A405blank − A405sample)/(A405blank)] × 100%.

[2] = system: malondialdehyde (MDA) levels; experiment: MDA levels in mouse brain tissue extracts (TBA); assay type: in vivo; conditions: vitisin A or B 40 mg/kg oral; donepezil 5 mg/kg; scopolamine-treated mice
Protocol: (§1) The isolated whole brain tissue was weighted, and powdered in liquid nitrogen using a mortar and pestle. The proteins in the tissue powders were suspended and extracted by 1 mL, one-fold-diluted PBS. […] The protein contents in tissue extracts were determined by the BCA^TM protein assay kit (Thermo Fisher Scientific Inc.), and BSA was used to plot the standard curve. The AChE activity in the brain extracts was determined following the previous report. […] The malondialdehyde (MDA) levels in the brain extracts was determined using acidic TBA. The 320 μL of 0.5% TBA in 10% trichloroacetic acid was premixed with 80 μL of 5-fold diluted tissue extracts, and then heated at boiling water for 20 min, and then centrifuged at 10,000 rpm, 4 °C for 30 min. […] For determining protein expressions of BDNF and its receptor, TrkB, among brain extracts of the treated mice, the immune stains were performed onto polyvinylidene difluoride (PVDF) membranes (Millipore, Bedford, MA, USA). […] The western chemiluminescent HRP substrate kit (WBKL S0050, Millipore) was used to stain the target protein expressions, which the image system [Syngene GeneGnome5 imaging system (Cambridge, UK)] was used to quantify the image levels of target protein in the immune blots.

[3] = system: brain-derived neurotrophic factor (BDNF); experiment: BDNF protein expression in mouse brain tissue extracts (immune blot); assay type: in vivo; conditions: vitisin A or B 40 mg/kg oral; donepezil 5 mg/kg; scopolamine-treated mice
Protocol: as §1

AChE [4] = target: T3, AChE (Mus musculus, UniProt P21836); assay type: in vivo; conditions: vitisin A or B 40 mg/kg oral; donepezil 5 mg/kg; scopolamine-treated mice
T3 construct: The isolated whole brain tissue was weighted, and powdered in liquid nitrogen using a mortar and pestle; from tissue; host or cells: whole brain of ICR mice (PBS extract, supernatant)
T3 sequence (P21836 32-614): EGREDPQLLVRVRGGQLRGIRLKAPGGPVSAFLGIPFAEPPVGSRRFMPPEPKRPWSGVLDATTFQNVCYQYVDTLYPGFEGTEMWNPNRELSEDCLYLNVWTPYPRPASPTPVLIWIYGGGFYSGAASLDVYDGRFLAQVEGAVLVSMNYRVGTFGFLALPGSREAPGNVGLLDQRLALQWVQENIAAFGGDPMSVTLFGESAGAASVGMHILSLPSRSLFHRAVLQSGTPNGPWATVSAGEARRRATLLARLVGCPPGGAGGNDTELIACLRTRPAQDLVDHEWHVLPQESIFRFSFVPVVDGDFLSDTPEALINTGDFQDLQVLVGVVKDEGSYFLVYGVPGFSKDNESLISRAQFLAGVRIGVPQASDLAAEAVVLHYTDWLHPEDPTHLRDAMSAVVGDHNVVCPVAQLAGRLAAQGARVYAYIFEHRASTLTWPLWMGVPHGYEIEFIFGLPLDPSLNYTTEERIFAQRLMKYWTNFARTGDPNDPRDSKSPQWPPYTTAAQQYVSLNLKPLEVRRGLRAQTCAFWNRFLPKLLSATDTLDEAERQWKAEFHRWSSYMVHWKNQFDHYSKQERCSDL
Protocol: as §1

AChE [5] = conditions: read-out: IC50 of AChE inhibitory activities; cited from earlier work
AChE [6] = system: AChE; set-up: method as in PMID 32118214; conditions: read-out: IC50 of AChE inhibitory activity; cited from earlier work
[7] = system: C57BL/6 mice treated with high fat diets; set-up: method as in PMID 26448517; conditions: oral administration once a day at dose of 25 mg/kg with high fat diets; cited from earlier work
[8] = system: spontaneously hypertensive rats; set-up: method as in PMID 22762395; conditions: at the 8-h after a single oral dose of 10 mg/kg; cited from earlier work
[9] = system: tropomyosin receptor kinase B (TrkB); experiment: TrkB protein expression in mouse brain tissue extracts (immune blot); assay type: in vivo; conditions: vitisin A or B 40 mg/kg oral; donepezil 5 mg/kg; scopolamine-treated mice
Protocol: as §1

[10] = system: endothelium-intact thoracic aortic rings of SD rats; set-up: method as in PMID 22762395; conditions: by increasing NO releases; cited from earlier work
[11] = compound study: vitisin A or vitisin B 40 mg/kg oral daily day 1-13, donepezil 5 mg/kg day 10-13
[12] = pretreatment 2.5, 5, 10, and 20 μM for 24 h

T2 sequence (P22303 32-614): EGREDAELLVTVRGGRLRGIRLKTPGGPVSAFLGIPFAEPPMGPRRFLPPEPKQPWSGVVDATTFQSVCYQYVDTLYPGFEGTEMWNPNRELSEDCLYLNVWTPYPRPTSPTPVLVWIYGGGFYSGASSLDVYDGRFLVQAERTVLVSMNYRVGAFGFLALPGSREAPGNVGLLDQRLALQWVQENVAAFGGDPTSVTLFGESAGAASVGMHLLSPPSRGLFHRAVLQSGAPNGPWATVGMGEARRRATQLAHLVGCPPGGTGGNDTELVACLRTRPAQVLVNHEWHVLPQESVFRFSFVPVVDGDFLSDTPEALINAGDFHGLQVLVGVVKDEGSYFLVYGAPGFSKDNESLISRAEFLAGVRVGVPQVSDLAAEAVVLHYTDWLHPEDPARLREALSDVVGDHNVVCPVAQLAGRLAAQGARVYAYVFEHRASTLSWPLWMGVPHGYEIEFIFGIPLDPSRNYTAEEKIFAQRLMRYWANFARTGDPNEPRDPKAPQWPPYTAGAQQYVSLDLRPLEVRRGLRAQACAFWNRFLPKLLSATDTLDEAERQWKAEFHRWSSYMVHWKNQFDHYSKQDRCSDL

Compound	step-through latency in the retention trial compared to the control [1, 11]	IC50 (recombinant human MAO-B)	MGO-treated cell viability compared to the control (SH-SY5Y cells; [12])	IC50 (recombinant human AChE)	IC50 (AChE [5])	also measured
COc1cc2c(cc1OC)C(=O)C(CC1CCN(Cc3ccccc3)CC1)C2 (stereo not drawn) [donepezil, reference compound]	significant longer time	–	–	–	–	step-through latency in the retention trial compared to the control ([1]; extract study: VT-95EE or VT-95EE-EA 200 and 400 mg/kg oral daily day 1-15, donepezil 5 mg/kg day 12-15): significant longer time
Oc1ccc(/C=C/c2cc(O)cc(O)c2)cc1 [resveratrol, reference compound]	–	41.3 µM	no significant difference	–	–	–
Oc1ccc([C@H]2c3c(O)cc(O)cc3[C@H]3c4c(cc(O)cc4[C@@H]2[C@H]2c4cc(O)cc5c4[C@H](c4cc(O)cc(O)c4[C@@H]2c2ccc(O)cc2)[C@@H](c2ccc(O)cc2)O5)O[C@@H]3c2ccc(O)cc2)cc1 [hopeaphenol, (+)-hopeaphenol]	–	88.2 µM	no significant difference	8060 nM	–	–
Oc1ccc([C@H]2Oc3cc(O)cc(/C=C/c4ccc5c(c4)[C@@H](c4cc(O)cc6c4[C@H](c4cc(O)cc(O)c4)[C@@H](c4ccc(O)cc4)O6)[C@H](c4ccc(O)cc4)O5)c3[C@@H]2c2cc(O)cc(O)c2)cc1 [vitisin B, (−)-vitisin B]	no significant difference	1.08 µM	–	1330 nM	–	MGO-treated cell viability compared to the control (SH-SY5Y cells; pretreatment 5, 10, and 20 μM for 24 h): significantly to elevate MGO-treated cell viability; MDA levels in brain tissue extracts compared to the control [2]: no effect on reduction of MDA level; BDNF protein expression in brain tissue extracts [3]: recover the reduced BDNF protein expressions; AChE activity in brain tissue extracts compared to the control (AChE [4]): lower increased AChE activities
O=C(OC[C@H]1O[C@@H](OC(=O)c2cc(O)c(O)c(O)c2)[C@H](OC(=O)c2cc(O)c(O)c(O)c2)[C@@H](OC(=O)c2cc(O)c(O)c(O)c2)[C@@H]1O)c1cc(O)c(O)c(O)c1 [1,2,3,6-tetra-O-galloyl-β-D-glucopyranoside]	–	–	–	–	84.2 µM	–
COc1cc(/C=C/C(=O)CC(=O)/C=C/c2ccc(O)c(O)c2)ccc1O [demethylcurcumin]	–	–	–	–	–	IC50 (AChE [6]): 66.9 µM
O=C(O[C@H]1[C@@H]2OC(=O)c3cc(O)c(O)c(O)c3-c3c(cc(O)c(O)c3O)C(=O)OC[C@H]2OC(O)[C@@H]1OC(=O)c1cc(O)c(O)c(O)c1)c1cc(O)c(O)c(O)c1 (stereo partly drawn) [tellimagrandin I]	–	–	–	–	18.4 µM	–
O=C(OC1O[C@@H]2COC(=O)c3cc(O)c(O)c(O)c3-c3c(cc(O)c(O)c3O)C(=O)O[C@H]2[C@H](OC(=O)c2cc(O)c(O)c(O)c2)[C@H]1OC(=O)c1cc(O)c(O)c(O)c1)c1cc(O)c(O)c(O)c1 (stereo partly drawn) [tellimagrandin II]	–	–	–	–	18.6 µM	–
Oc1ccc([C@H]2c3c(O)cc(O)cc3[C@H]3c4c(cc(O)cc4[C@@H]2c2cc(/C=C/c4cc(O)cc5c4[C@H](c4cc(O)cc(O)c4)[C@@H](c4ccc(O)cc4)O5)ccc2O)O[C@@H]3c2ccc(O)cc2)cc1 [vitisin A, (+)-vitisin A]	significant longer time	4.94 µM	significantly to elevate MGO-treated cell viability	1290 nM	–	weight gains [7]: reduce weight gains; greatest reduction in diastolic blood pressure [8]: 25.7 mmHg; greatest reduction in systolic blood pressure [8]: 23.6 mmHg; TrkB protein expression in brain tissue extracts [9]: recover both protein expressions of the reduced BDNF and TrkB; MDA levels in brain tissue extracts compared to the control [2]: lower increase in AChE and MDA levels; BDNF protein expression in brain tissue extracts [3]: recover both protein expressions of the reduced BDNF and TrkB; effect on phenylephrine-induced tension [10]: vasodilating effects; AChE activity in brain tissue extracts compared to the control (AChE [4]): lower increase in AChE and MDA levels
